Test results taken from patent publication US12564595B2, “Prophylactic and therapeutic pharmaceutical agent for HIV infectious diseases characterized by comprising combination of integrase inhibitor and anti-HIV agent” (Shionogi & Co., Ltd., priority 2019, dated 2026).

Tested on: HIV mutant strain 2 (E92Q/E138T/G140S/Q148H)
Assay: Test Example 2: resistance evaluation test (HeLa-CD4 reporter), mutant strain 2
Type: cell-based
Conditions: FC=EC50 of mutant strain/EC50 of wild strain; HeLa-CD4 cells
Procedure: (§1) A serial dilution series of test samples in 96-well microplates was prepared (50 […]).
(§2) 2.5×10^4/mL of HeLa-CD4 cell suspension was dispensed into each of the microplates containing test sample, in the amount of 100 μL/well, and HIV virus liquid (wild strain and mutant strain) was then dispensed in an amount of 50 μL/well. Mixing was performed using a plate mixer and culturing was performed for three days in a CO2 incubator. After removing the cultured supernatant of each well by suction, 100 μL of the cell solution buffer in the reporter measurement kit was dispensed thereto, and freezing was conducted in a refrigerator (−80° C.). The plates frozen in the refrigerator were defrosted at room temperature, then mixed using a plate mixer and centrifuged for 5 min at 1,200 rpm. The supernatant of each well was divided to 96-well microplates (BLACK) in the amount of 20 μL in each case. The chemiluminescence reagent in the reporter assay kit was dispensed in the amount of 100 μL in each case, and, after reacting for about 1 h at room temperature, the amount of luminescence was measured using a MicroBeta TRILUX.
(§3) The degree of resistance (fold change (FC)) of each mutant strain was also calculated using the following formula. FC=EC50 of mutant strain/EC50 of wild strain (Results)
(§4) The results of the example compounds relating to formula (I) of (A) are shown below. The […] in respect of mutant strain 1 (E138K/G140S/Q148H/N155H) and the FC in respect of mutant strain 2 (E92Q/E138T/G140S/Q148H) are shown in the Table.
For `CCN1C(=O)c2c(O)c(=O)c(C(=O)NCc3c(F)cc(F)cc3F)cn2N2CCCC[C@@H]12` [Compound I-016], the “FC in respect of mutant strain 2 (E92Q/E138T/G140S/Q148H)” value (shortened to “FC … (E92Q/E138T/G140S/Q148H)”) was 10.
For `CCN1C(=O)c2c(O)c(=O)c(C(=O)NCc3ccc(F)cc3F)cn2N2C[C@@H]3CC[C@@H](O3)[C@@H]12` [II-088], the “FC … (E92Q/E138T/G140S/Q148H)” value was 45.
With `CCN1C(=O)c2c(O)c(=O)c(C(=O)NCc3c(F)cc(F)cc3F)cn2N2C[C@@H](C)C[C@@H]12` [II-043] the “FC … (E92Q/E138T/G140S/Q148H)” value was 17.
In the case of `CC(C)N1C(=O)c2c(O)c(=O)c(C(=O)NCc3ccccc3F)cn2N2C[C@@H]3CC[C@@H](O3)[C@@H]12` [II-009], the “FC … (E92Q/E138T/G140S/Q148H)” value is reported as 6.4.
For `CN1C(=O)c2c(O)c(=O)c(C(=O)NCc3cccc(Cl)c3F)cn2N2C[C@@H]3CC[C@@H](C3)[C@@H]12` [II-023], the “FC … (E92Q/E138T/G140S/Q148H)” value was 15.
For `CN1C(=O)c2c(O)c(=O)c(C(=O)NCc3cccc(Cl)c3F)cn2N2CCOC[C@@H]12` [II-094], the “FC … (E92Q/E138T/G140S/Q148H)” value was 27.
In the case of `CCN1C(=O)c2c(O)c(=O)c(C(=O)NCc3ccc(F)cc3F)cn2N2C[C@@H](COC)C[C@@H]12` [II-056], the “FC … (E92Q/E138T/G140S/Q148H)” value is reported as 28.
With `CC(C)N1C(=O)c2c(O)c(=O)c(C(=O)NCc3ccc(F)cc3F)cn2N2C[C@@H]3CC[C@@H](O3)[C@@H]12` [II-016] the “FC … (E92Q/E138T/G140S/Q148H)” value was 9.
For `CN1C(=O)c2c(O)c(=O)c(C(=O)NCc3c(F)cc(F)cc3F)cn2N2CCCC[C@@H]12` [II-089], the “FC … (E92Q/E138T/G140S/Q148H)” value was 14.
In the case of `CN1C(=O)c2c(O)c(=O)c(C(=O)NCc3cccc(Cl)c3F)cn2N2CCCC[C@@]12C` [II-129], the “FC … (E92Q/E138T/G140S/Q148H)” value is reported as 26.
For `CC(C)N1C(=O)c2c(O)c(=O)c(C(=O)NCc3ccc(F)cc3F)cn2N2CCOC[C@@H]12` [II-021], the “FC … (E92Q/E138T/G140S/Q148H)” value was 14.
For `CN1C(=O)c2c(O)c(=O)c(C(=O)NCc3cccc(F)c3F)cn2N2CCCC[C@@H]12` [II-091], the “FC … (E92Q/E138T/G140S/Q148H)” value was 17.
With `CCN1C(=O)c2c(O)c(=O)c(C(=O)NCc3ccc(F)cc3F)cn2N2C[C@@H]3CCC[C@@H](C3)[C@@H]12` [II-013] the “FC … (E92Q/E138T/G140S/Q148H)” value was 8.7.
In the case of `CCN1C(=O)c2c(O)c(=O)c(C(=O)NCc3ccc(F)cc3F)cn2N2CC[C@H](C)C[C@@H]12` [II-064], the “FC … (E92Q/E138T/G140S/Q148H)” value is reported as 22.
With `CCN1C(=O)c2c(O)c(=O)c(C(=O)NCc3ccc(F)nc3F)cn2N2C[C@@H]3CC[C@@H](O3)[C@@H]12` [II-152] the “FC … (E92Q/E138T/G140S/Q148H)” value was 25.

Tested on: not listed separately
Assay: Test Example 8: metabolic stability test
Type: in vitro ADME, human
Conditions: pooled human liver microsomes, 30 min at 37° C., NADPH, compound concentration 0.5 μmol/L
Procedure: The extent of metabolization of the compound according to the present invention in the liver was evaluated by reacting commercially available pooled human liver microsomes with the compound according to the present invention for a fixed time and calculating the remaining percentage by comparing the reaction sample with an unreacted sample.
The reaction (oxidative reaction) was conducted for 0 min or 30 min at 37° C. in the presence of 1 mmol/L of NADPH, in a 0.2 mL buffer solution containing 0.5 mg of human liver microsome protein/mL (50 mmol/L Tris-HCl pH 7.4, 150 mmol/L potassium chloride, 10 mmol/L magnesium chloride). After the reaction, 50 μL of reaction liquid were added to 100 μL of methanol/acetonitrile=1/1 (v/v) solution, mixed, and centrifuged for 15 minutes at 3000 rpm. The compound according to the present invention in the centrifuged supernatant was quantified using LC/MS/MS or solid phase extraction (SPE)/MS; the residual amount of the compound according to the present invention after the reaction was calculated, taking the amount of the compound at the 0 min reaction point as 100%.
Molecule `CCN1C(=O)c2c(O)c(=O)c(C(=O)NCc3c(F)cc(F)cc3F)cn2N2CCCC[C@@H]12` [Compound I-016] has a Remaining percentage of 88%.
`CCN1C(=O)c2c(O)c(=O)c(C(=O)NCc3ccc(F)cc3F)cn2N2C[C@@H]3CC[C@@H](O3)[C@@H]12` [II-088] showed a Remaining percentage of 101%.
`CCN1C(=O)c2c(O)c(=O)c(C(=O)NCc3c(F)cc(F)cc3F)cn2N2C[C@@H](C)C[C@@H]12` [II-043] showed a Remaining percentage of 83.2%.
In the case of `CC(C)N1C(=O)c2c(O)c(=O)c(C(=O)NCc3ccccc3F)cn2N2C[C@@H]3CC[C@@H](O3)[C@@H]12` [II-009], the Remaining percentage is reported as 87%.
`CN1C(=O)c2c(O)c(=O)c(C(=O)NCc3cccc(Cl)c3F)cn2N2C[C@@H]3CC[C@@H](C3)[C@@H]12` [II-023] gave a Remaining percentage of 74.2%.
In the case of `CN1C(=O)c2c(O)c(=O)c(C(=O)NCc3cccc(Cl)c3F)cn2N2CCOC[C@@H]12` [II-094], the Remaining percentage is reported as 97.2%.
`CCN1C(=O)c2c(O)c(=O)c(C(=O)NCc3ccc(F)cc3F)cn2N2C[C@@H](COC)C[C@@H]12` [II-056] gave a Remaining percentage of 94.3%.
Work on `CC(C)N1C(=O)c2c(O)c(=O)c(C(=O)NCc3ccc(F)cc3F)cn2N2C[C@@H]3CC[C@@H](O3)[C@@H]12` [II-016] yielded a Remaining percentage of 89.1%.
`CN1C(=O)c2c(O)c(=O)c(C(=O)NCc3c(F)cc(F)cc3F)cn2N2CCCC[C@@H]12` [II-089] gave a Remaining percentage of 105%.
Work on `CN1C(=O)c2c(O)c(=O)c(C(=O)NCc3cccc(Cl)c3F)cn2N2CCCC[C@@]12C` [II-129] yielded a Remaining percentage of 88.6%.
In the case of `CC(C)N1C(=O)c2c(O)c(=O)c(C(=O)NCc3ccc(F)cc3F)cn2N2CCOC[C@@H]12` [II-021], the Remaining percentage is reported as 87.5%.
Molecule `CN1C(=O)c2c(O)c(=O)c(C(=O)NCc3cccc(F)c3F)cn2N2CCCC[C@@H]12` [II-091] has a Remaining percentage of 96.9%.
Work on `CCN1C(=O)c2c(O)c(=O)c(C(=O)NCc3ccc(F)cc3F)cn2N2C[C@@H]3CCC[C@@H](C3)[C@@H]12` [II-013] yielded a Remaining percentage of 77.6%.
For `CCN1C(=O)c2c(O)c(=O)c(C(=O)NCc3ccc(F)cc3F)cn2N2CC[C@H](C)C[C@@H]12` [II-064], the Remaining percentage was 104%.
Molecule `CCN1C(=O)c2c(O)c(=O)c(C(=O)NCc3ccc(F)nc3F)cn2N2C[C@@H]3CC[C@@H](O3)[C@@H]12` [II-152] has a Remaining percentage of 105%.

Tested on: HIV mutant strain 1 (E138K/G140S/Q148H/N155H)
Assay: Test Example 2: resistance evaluation test (HeLa-CD4 reporter), mutant strain 1
Type: cell-based
Conditions: FC=EC50 of mutant strain/EC50 of wild strain; HeLa-CD4 cells
Procedure: as §1, §2, §3, §4
For `CCN1C(=O)c2c(O)c(=O)c(C(=O)NCc3c(F)cc(F)cc3F)cn2N2CCCC[C@@H]12` [Compound I-016], the “FC in respect of mutant strain 1 (E138K/G140S/Q148H/N155H)” value (shortened to “FC … (E138K/G140S/Q148H/N155H)”) was 13.
In the case of `CCN1C(=O)c2c(O)c(=O)c(C(=O)NCc3ccc(F)cc3F)cn2N2C[C@@H]3CC[C@@H](O3)[C@@H]12` [II-088], the “FC … (E138K/G140S/Q148H/N155H)” value is reported as 47.
For `CCN1C(=O)c2c(O)c(=O)c(C(=O)NCc3c(F)cc(F)cc3F)cn2N2C[C@@H](C)C[C@@H]12` [II-043], the “FC … (E138K/G140S/Q148H/N155H)” value was 18.
In the case of `CC(C)N1C(=O)c2c(O)c(=O)c(C(=O)NCc3ccccc3F)cn2N2C[C@@H]3CC[C@@H](O3)[C@@H]12` [II-009], the “FC … (E138K/G140S/Q148H/N155H)” value is reported as 5.6.
In the case of `CN1C(=O)c2c(O)c(=O)c(C(=O)NCc3cccc(Cl)c3F)cn2N2C[C@@H]3CC[C@@H](C3)[C@@H]12` [II-023], the “FC … (E138K/G140S/Q148H/N155H)” value is reported as 9.9.
For `CN1C(=O)c2c(O)c(=O)c(C(=O)NCc3cccc(Cl)c3F)cn2N2CCOC[C@@H]12` [II-094], the “FC … (E138K/G140S/Q148H/N155H)” value was 50.
In the case of `CCN1C(=O)c2c(O)c(=O)c(C(=O)NCc3ccc(F)cc3F)cn2N2C[C@@H](COC)C[C@@H]12` [II-056], the “FC … (E138K/G140S/Q148H/N155H)” value is reported as 15.
With `CC(C)N1C(=O)c2c(O)c(=O)c(C(=O)NCc3ccc(F)cc3F)cn2N2C[C@@H]3CC[C@@H](O3)[C@@H]12` [II-016] the “FC … (E138K/G140S/Q148H/N155H)” value was 6.6.
In the case of `CN1C(=O)c2c(O)c(=O)c(C(=O)NCc3c(F)cc(F)cc3F)cn2N2CCCC[C@@H]12` [II-089], the “FC … (E138K/G140S/Q148H/N155H)” value is reported as 38.
With `CN1C(=O)c2c(O)c(=O)c(C(=O)NCc3cccc(Cl)c3F)cn2N2CCCC[C@@]12C` [II-129] the “FC … (E138K/G140S/Q148H/N155H)” value was 44.
In the case of `CC(C)N1C(=O)c2c(O)c(=O)c(C(=O)NCc3ccc(F)cc3F)cn2N2CCOC[C@@H]12` [II-021], the “FC … (E138K/G140S/Q148H/N155H)” value is reported as 8.1.
In the case of `CN1C(=O)c2c(O)c(=O)c(C(=O)NCc3cccc(F)c3F)cn2N2CCCC[C@@H]12` [II-091], the “FC … (E138K/G140S/Q148H/N155H)” value is reported as 48.
For `CCN1C(=O)c2c(O)c(=O)c(C(=O)NCc3ccc(F)cc3F)cn2N2C[C@@H]3CCC[C@@H](C3)[C@@H]12` [II-013], the “FC … (E138K/G140S/Q148H/N155H)” value was 6.1.
In the case of `CCN1C(=O)c2c(O)c(=O)c(C(=O)NCc3ccc(F)cc3F)cn2N2CC[C@H](C)C[C@@H]12` [II-064], the “FC … (E138K/G140S/Q148H/N155H)” value is reported as 27.
In the case of `CCN1C(=O)c2c(O)c(=O)c(C(=O)NCc3ccc(F)nc3F)cn2N2C[C@@H]3CC[C@@H](O3)[C@@H]12` [II-152], the “FC … (E138K/G140S/Q148H/N155H)” value is reported as 36.
